# How the values were obtained:
# Test in all cases: biochemical
# Set-up in all cases: scanMAX competition binding; kinase recovered on immobilized ligand quantified by qPCR, per cent of control
# Settings in all cases: read-out: APA (POC)
# [1] = molecular target: CDKL2 (Homo sapiens, UniProt Q92772)
# Method: (§1) The binding affinities of APA and NAPA were evaluated in the scanMAX^sm Kinase Assay Panel (DiscoverX) at a final concentration of 10 µM. The compounds were tested for steric or allosteric binding to kinases in solution. The kinase was captured from the solution through an immobilized kinase-specific ligand and the kinase recovery was quantified. The amount of recovered kinase in the presence or absence of APA or NAPA was measured by quantitative PCR compared with the kinase capture in absence of the compound. Any compound reducing the binding affinity of a kinase to the respective immobilized ligand was scored as a potential hit, and the binding affinity of the compound toward a kinase is interpreted as the difference between the kinase recovery in the absence and presence of the compound. The inhibitory binding constants (Kd) of APA and NAPA to AURKA were evaluated in a KdELECT Kinase Assay (DiscoverX). […] Data acquisition followed the same methodology as for the scanMAX^sm Kinase Assay Panel. 6 Supplementary Figure 4. Kinome inhibition profiles of APA and its NAT2 metabolite NAPA identifies preferential APA kinase targets and differential binding to AURKA a The human kinome was assessed for binding affinity to APA and NAPA at 10 µM concentration (468 kinases in the scanMAX Kinase Assay Panel, DiscoverX). The family stratification of kinases is shown as a cladogram. Circles visualize the binding affinity of NAPA and APA towards each kinase with a higher intensity of blue corresponding to a higher binding affinity. […] One single data point from one experiment at a concentration 18.5 µM of APA was excluded as an outlier. c Thermal shift assay for human recombinant AURKA in the presence of APA and the selective inhibitor S1451. Melting temperatures were obtained by calculating the first derivative of the tryptophan fluorescence ratio at 350 nm and 330 nm and are shown for AURKA in the presence of S1451 (blue) and APA (yellow). Structural similarities between APA and kinase inhibitors[27] prompted investigation of protein kinases as mediators of APA toxicity. […] To enrich for kinase interactions that could explain the preferential killing of slow NAT2 cells, we compared the binding affinity of each kinase with APA and NAPA, selected 44 targets with preferential binding to APA and excluded kinases non-essential for cell survival and those not expressed in CRC cells (Supplementary Fig. 4A, Supplementary Table 4). […] The growth inhibition of RKO and DLD-1 following siRNA-mediated AURKA knockdown (Figs. 3c, d) reflected the relative efficiency of protein downregulation (Supplementary Fig. 5C, D). […] (Supplementary Fig. 4C). AURKA regulates cell cycle progression through association with other centrosome and spindle-associated proteins. Its activation requires auto-phosphorylation at Thr288 and ensures spindle pole integrity, centrosome duplication as well as adequate chromosomal alignment and segregation, while its inhibition leads to multipolar spindles with acentrosomal poles[28],[31]. […] S1451 reduced the fraction of pAURKA levels by >90% regardless of NAT2 expression (Fig. 3f and Su
# [2] = molecular target: MINK1 (Homo sapiens, UniProt Q8N4C8)
# Method: as §1
# [3] = molecular target: CLK1 (Homo sapiens, UniProt P49759)
# Method: as §1
# [4] = molecular target: RIOK3 (Homo sapiens, UniProt O14730)
# Method: as §1
# [5] = molecular target: CDK7 (Homo sapiens, UniProt P50613)
# Method: as §1
# [6] = molecular target: HIPK3 (Homo sapiens, UniProt Q9H422)
# Method: as §1
# [7] = molecular target: CSF1R (Homo sapiens, UniProt P07333)
# Method: as §1
# [8] = molecular target: MKNK1 (Homo sapiens, UniProt Q9BUB5)
# Method: as §1
# [9] = molecular target: FLT4 (Homo sapiens, UniProt P35916)
# Method: as §1
# [10] = molecular target: MAST1 (Homo sapiens, UniProt Q9Y2H9)
# Method: as §1
# [11] = molecular target: T1, ZAK (Homo sapiens, UniProt Q9NYL2)
# T1 construct: gene MAP3K20
# Method: as §1
# [12] = molecular target: NEK10 (Homo sapiens, UniProt Q6ZWH5)
# Method: as §1
# [13] = molecular target: CLK4 (Homo sapiens, UniProt Q9HAZ1)
# Method: as §1
# [14] = molecular target: HIPK1 (Homo sapiens, UniProt Q86Z02)
# Method: as §1
# [15] = molecular target: TNIK (Homo sapiens, UniProt Q9UKE5)
# Method: as §1
# Sequence of TNIK (Q9UKE5 whole entry): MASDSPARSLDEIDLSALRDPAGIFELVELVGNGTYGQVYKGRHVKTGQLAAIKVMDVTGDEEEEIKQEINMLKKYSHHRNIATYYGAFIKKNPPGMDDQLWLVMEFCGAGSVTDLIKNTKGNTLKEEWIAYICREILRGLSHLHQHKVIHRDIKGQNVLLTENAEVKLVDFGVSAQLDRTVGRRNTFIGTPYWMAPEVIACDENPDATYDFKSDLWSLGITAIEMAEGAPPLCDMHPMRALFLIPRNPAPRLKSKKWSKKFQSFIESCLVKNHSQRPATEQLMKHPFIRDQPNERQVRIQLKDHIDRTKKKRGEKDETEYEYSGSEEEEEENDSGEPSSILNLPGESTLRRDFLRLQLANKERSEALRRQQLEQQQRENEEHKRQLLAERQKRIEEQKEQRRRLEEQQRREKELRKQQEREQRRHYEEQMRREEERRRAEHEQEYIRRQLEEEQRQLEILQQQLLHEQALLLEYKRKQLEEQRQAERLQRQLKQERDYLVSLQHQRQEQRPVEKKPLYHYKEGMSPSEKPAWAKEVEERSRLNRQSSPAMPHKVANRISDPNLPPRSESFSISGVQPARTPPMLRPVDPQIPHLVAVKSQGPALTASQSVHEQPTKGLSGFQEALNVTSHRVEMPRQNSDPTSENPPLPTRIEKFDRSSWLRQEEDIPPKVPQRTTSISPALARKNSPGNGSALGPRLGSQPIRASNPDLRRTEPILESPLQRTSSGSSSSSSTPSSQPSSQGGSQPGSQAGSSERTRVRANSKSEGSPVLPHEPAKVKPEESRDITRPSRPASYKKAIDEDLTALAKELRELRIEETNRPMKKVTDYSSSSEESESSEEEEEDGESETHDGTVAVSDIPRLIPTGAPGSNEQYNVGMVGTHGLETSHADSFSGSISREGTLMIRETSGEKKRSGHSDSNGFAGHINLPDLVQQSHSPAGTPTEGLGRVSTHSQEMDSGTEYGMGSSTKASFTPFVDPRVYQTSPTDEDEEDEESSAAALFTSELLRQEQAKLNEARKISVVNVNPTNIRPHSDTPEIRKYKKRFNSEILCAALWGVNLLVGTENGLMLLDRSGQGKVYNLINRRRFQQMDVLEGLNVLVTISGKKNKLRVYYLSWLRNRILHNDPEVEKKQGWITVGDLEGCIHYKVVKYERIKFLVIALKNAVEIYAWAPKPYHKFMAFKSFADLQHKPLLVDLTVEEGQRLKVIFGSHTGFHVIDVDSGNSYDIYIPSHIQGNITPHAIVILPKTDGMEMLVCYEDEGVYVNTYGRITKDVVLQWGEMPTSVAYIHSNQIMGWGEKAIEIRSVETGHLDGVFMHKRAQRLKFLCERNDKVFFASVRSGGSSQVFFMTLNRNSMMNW
# Sequence of CDKL2 (Q92772 whole entry): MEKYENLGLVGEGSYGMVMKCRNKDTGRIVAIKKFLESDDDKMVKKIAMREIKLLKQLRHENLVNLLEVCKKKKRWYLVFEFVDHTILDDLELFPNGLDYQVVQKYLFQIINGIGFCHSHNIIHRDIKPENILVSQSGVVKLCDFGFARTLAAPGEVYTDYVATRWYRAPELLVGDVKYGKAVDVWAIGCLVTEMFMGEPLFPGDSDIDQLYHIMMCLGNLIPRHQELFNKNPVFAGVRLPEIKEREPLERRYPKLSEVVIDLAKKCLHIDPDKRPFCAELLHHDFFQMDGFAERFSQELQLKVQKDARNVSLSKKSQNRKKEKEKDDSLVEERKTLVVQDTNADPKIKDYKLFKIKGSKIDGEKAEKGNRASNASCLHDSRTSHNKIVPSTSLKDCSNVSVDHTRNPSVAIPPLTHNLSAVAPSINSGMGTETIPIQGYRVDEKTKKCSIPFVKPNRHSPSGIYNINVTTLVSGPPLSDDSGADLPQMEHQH
# Sequence of FLT4 (P35916 whole entry): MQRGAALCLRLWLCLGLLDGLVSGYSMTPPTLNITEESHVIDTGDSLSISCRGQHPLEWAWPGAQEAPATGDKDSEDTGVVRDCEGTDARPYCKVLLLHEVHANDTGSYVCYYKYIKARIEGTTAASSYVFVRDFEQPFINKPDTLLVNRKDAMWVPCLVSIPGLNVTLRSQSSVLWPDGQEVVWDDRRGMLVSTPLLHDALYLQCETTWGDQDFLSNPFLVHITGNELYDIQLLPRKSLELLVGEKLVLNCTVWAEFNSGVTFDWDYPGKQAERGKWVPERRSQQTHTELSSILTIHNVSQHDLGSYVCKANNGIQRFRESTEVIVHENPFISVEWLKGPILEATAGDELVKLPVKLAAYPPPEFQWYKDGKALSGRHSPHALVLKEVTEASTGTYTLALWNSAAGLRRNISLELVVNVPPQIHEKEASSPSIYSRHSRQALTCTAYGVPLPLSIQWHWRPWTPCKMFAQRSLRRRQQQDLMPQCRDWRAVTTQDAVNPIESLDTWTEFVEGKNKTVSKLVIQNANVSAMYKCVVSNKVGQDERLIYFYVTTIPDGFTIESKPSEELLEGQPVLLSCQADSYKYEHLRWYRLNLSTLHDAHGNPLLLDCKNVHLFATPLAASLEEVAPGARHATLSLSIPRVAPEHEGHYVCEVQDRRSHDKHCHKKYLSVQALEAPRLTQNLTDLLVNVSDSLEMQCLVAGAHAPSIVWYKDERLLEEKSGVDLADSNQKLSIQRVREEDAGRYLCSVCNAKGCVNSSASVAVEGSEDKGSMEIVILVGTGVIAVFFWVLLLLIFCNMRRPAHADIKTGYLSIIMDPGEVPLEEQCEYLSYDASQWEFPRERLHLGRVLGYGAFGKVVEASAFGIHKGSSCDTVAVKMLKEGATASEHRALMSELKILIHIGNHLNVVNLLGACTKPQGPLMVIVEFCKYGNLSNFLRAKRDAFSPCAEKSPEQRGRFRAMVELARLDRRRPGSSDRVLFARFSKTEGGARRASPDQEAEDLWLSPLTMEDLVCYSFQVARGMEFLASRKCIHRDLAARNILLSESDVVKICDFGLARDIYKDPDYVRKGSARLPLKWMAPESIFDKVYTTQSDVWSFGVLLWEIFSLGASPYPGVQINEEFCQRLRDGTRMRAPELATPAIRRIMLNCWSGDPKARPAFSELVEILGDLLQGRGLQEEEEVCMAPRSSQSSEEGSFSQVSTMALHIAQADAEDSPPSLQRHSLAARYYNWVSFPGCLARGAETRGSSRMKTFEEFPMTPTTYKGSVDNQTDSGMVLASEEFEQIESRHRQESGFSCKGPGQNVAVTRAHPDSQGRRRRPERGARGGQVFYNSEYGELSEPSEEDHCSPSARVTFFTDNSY
# Sequence of MAST1 (Q9Y2H9 whole entry): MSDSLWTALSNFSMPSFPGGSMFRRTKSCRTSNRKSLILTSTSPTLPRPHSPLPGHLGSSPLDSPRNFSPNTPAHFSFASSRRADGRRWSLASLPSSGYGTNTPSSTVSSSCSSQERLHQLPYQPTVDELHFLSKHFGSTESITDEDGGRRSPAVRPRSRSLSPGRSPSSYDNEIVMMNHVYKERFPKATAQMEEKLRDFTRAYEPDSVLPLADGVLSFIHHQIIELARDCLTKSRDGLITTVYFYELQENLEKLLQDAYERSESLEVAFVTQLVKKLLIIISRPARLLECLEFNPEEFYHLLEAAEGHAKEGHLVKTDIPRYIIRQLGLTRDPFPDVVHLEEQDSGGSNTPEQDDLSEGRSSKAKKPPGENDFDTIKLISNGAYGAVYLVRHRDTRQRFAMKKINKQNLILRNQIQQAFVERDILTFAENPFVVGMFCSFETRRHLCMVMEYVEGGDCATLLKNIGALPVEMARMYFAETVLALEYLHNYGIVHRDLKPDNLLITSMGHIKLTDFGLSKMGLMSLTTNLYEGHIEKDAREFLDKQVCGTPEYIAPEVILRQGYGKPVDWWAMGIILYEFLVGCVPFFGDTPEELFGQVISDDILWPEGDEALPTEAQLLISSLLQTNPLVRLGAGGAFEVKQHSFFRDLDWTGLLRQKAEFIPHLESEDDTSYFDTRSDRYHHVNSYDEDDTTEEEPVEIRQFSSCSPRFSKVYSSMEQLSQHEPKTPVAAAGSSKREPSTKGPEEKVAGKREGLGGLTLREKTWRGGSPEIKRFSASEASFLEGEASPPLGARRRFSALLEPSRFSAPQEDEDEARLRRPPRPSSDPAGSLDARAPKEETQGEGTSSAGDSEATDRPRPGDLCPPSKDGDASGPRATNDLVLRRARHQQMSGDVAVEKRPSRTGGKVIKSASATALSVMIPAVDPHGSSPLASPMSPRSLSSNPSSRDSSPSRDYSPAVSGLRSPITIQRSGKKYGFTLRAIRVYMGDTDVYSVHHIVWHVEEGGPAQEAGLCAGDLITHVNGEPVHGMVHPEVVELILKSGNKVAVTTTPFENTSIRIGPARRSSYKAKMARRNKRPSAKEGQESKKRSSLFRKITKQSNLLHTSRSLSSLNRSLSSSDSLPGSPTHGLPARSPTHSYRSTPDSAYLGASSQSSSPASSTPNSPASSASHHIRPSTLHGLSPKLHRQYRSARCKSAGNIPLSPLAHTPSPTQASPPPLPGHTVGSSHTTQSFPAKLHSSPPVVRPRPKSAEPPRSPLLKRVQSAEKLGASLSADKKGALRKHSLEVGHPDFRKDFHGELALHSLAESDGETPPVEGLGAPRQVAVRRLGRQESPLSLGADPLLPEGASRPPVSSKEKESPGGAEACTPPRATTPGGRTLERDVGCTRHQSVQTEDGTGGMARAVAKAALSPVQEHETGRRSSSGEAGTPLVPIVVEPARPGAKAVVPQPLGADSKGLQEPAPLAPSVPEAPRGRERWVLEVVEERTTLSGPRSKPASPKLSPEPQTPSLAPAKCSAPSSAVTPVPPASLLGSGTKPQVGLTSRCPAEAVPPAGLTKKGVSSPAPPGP
structure (smiles),measurement,setting,value
"COc1cc(Nc2cncc(-c3ccc(N)cc3)n2)cc(OC)c1OC [APA, 6-(4-aminophenyl)-N-(3,4,5-trimethoxyphenyl)pyrazin-2-amine]",remaining binding at 10 µM,[1],42%
same,remaining binding at 10 µM,[2],24%
same,remaining binding at 10 µM,[3],25%
same,remaining binding at 10 µM,[4],21%
same,remaining binding at 10 µM,[5],49%
same,remaining binding at 10 µM,[6],42%
same,remaining binding at 10 µM,[7],3.9%
same,remaining binding at 10 µM,[8],37%
same,remaining binding at 10 µM,[9],35%
same,remaining binding at 10 µM,[10],46%
same,remaining binding at 10 µM,[11],22%
same,remaining binding at 10 µM,[12],37%
same,remaining binding at 10 µM,[13],27%
same,remaining binding at 10 µM,[14],12%
same,remaining binding at 10 µM,[15],39%
